In a melting point compilation (Tetko et al.; mined from patent text by program, amines drawn as free bases though some values may be those of a salt):

Compound CCc1cc(OC)c(O)c([N+](=O)[O-])c1 has a melting point of 59 to 61 °C. Compound CCn1c2ccccc2c2cc(N(c3ccccc3)c3ccccc3)ccc21 has a melting point of 152 to 154 °C. CC(=O)Oc1cc2cc[nH]c2cc1OC(C)=O gave a melting point of 130 to 131 °C. Compound CCCCC(O)(c1cn(C(c2ccccc2)(c2ccccc2)c2ccccc2)cn1)c1cc(Cl)cc2c1OC(C)(C)OC2 (stereo not drawn) has a melting point of 124 °C. In the case of CCN(C)c1nc(-c2ccncc2)nc2sc(C#N)c(C)c12, the melting point is reported as 162 to 164 °C. Compound OC/C=C/c1ccc(O)cc1 has a melting point of 116 to 118 °C. For C=CCn1c(NCC#N)nc(N2CCc3ccccc3CC2)c(C#N)c1=O, the melting point was 198 to 203 °C. Work on Cc1nc(C(=O)Nc2cccc(Oc3ccc4nc(NC(=O)C5CC5)cn4n3)c2)c(C)o1 yielded a melting point of 224 °C. Work on CCOC(=O)Cc1c(C)n(Cc2csc(-c3ccc(Cl)cc3)n2)c2ccc(OCc3csc(-c4ccccc4)n3)cc12 yielded a melting point of 155 to 157 °C. O=C(Oc1cc(-c2ccccc2)nc2ccccc12)N1CCOCC1 showed a melting point of 127 °C. Compound CC1(C)C=Cc2cc(C(=O)NCCCCc3ccccc3)ccc2O1 has a melting point of 65 to 70 °C. Compound CCOC(=O)Cc1ccc(Nc2ncc3c(n2)N(C)C(=O)N(c2c(Cl)cccc2Cl)C3)cc1 has a melting point of 211 to 212 °C. Work on NCc1ccc(-n2c(-c3cccnc3N)nc3ccc(-c4ccccc4)nc32)cc1 yielded a melting point of 215 to 218 °C. In the case of Brc1cn2cc(-c3ccccc3)nc2c(Br)n1, the melting point is reported as 254 °C. CCCCCCCCCC(=O)OCC#Cc1ncn2c1CN(C)C(=O)c1c(Cl)cccc1-2 gave a melting point of 70 to 72 °C. For CCCCCCCCCCCCCCOc1cc(OCCCCCCc2cccc(OCc3ccccc3)c2OCc2ccccc2)cc(C(=O)OC)c1, the melting point was 56 to 58 °C. Compound CCCC=Cc1c(CC)nc(CC)c(CO)c1-c1ccccc1 has a melting point of 74 to 76 °C. O=C(CCCCl)c1ccc2oc3ccc(C(=O)CCCCl)cc3c2c1 showed a melting point of 102 to 104 °C. In the case of COc1cc2ncnc(N3CCN(C(=S)NCc4ccc(C(C)(C)C)cc4)CC3)c2cc1OC, the melting point is reported as 104 to 105 °C. Compound CCOC(=O)C1=C(COCCNC2=NCCS2)NC(C)=C(C(=O)OC)C1c1ccccc1Cl (stereo not drawn) has a melting point of 145 to 147 °C. O=c1c(-c2cccc(C(F)(F)F)c2)c[nH]n1-c1ccc(F)cc1 gave a melting point of 171 to 173 °C. Work on O=c1c2ccccc2nnn1CCCN1CCC(c2c[nH]c3ccccc23)CC1 yielded a melting point of 60 °C. Work on Nc1cc(F)ccc1C(=O)CCCN1CCN(c2cc3ccccc3cn2)CC1 yielded a melting point of 124 to 128 °C. In the case of Cc1cc(C(=O)C(C#N)C(=O)Nc2ccccc2)c(C)n1C (stereo not drawn), the melting point is reported as 158 to 160 °C. In the case of Cc1nncn1-c1ccc(Cl)cc1C(=O)c1ccccc1Cl, the melting point is reported as 148 °C. In the case of CCC(CC)(CO)c1cc(Cl)nnc1Cl, the melting point is reported as 85 to 87 °C. O=C(Nc1cc(S(=O)(=O)NC(CO)CO)sc1Cl)c1cnn2c(C(F)F)cc(-c3ccc(C(F)(F)F)cc3)nc12 showed a melting point of 241 °C. Compound Clc1cccnc1-c1cc(OCCc2ccccn2)c2[nH]nc(Br)c2c1 has a melting point of over 250 °C. For O=C(NCc1ccc(F)c(F)c1)c1ccnc(N2CCN(CC3CC3)C2=O)c1, the melting point was 134 to 136 °C. With CCN(CC)C(=O)c1c(CO)ccc(F)c1[Si](C)(C)C the melting point was 107 to 108 °C. O=c1c2ccccc2nc(CCl)n1-c1cccc(Cl)c1 showed a melting point of 202 to 205 °C. For Nc1cccc(Oc2cnc3cc(Cl)ccc3n2)c1, the melting point was 119 to 120 °C. For NNc1cc2c(nn1)CCN(C(=O)CCCc1ccccc1)C2, the melting point was 203 to 205 °C. With O=[N+]([O-])c1ccc2c(c1)CCC(COC1CCCCO1)O2 (stereo not drawn) the melting point was 66.4 °C. In the case of CCCN(CCC)C(=O)Cc1ccc(O)c2[nH]ncc12, the melting point is reported as 164 to 165 °C. In the case of CCOC(=O)C(C(=O)CBr)C1Cc2ccccc2C(c2ccccc2)N1 (stereo not drawn), the melting point is reported as 107 to 109 °C. O=C(O)CCc1oc(Sc2nccn2-c2ccccc2)nc1-c1ccc(Cl)cc1 gave a melting point of 185 to 187 °C. Work on CC(C)[C@H](NC(=O)OCc1ccccc1)C(=O)N[C@@H](C(C)C)[C@@H](O)c1c(-c2ccccc2)c1=O yielded a melting point of 63 to 71 °C. O=C1OC(=O)c2c(-c3ccccc3)c3ccccc3c3cccc1c23 showed a melting point of 158 to 161 °C. Work on CC(=O)OC1CSC(Oc2ccc(-c3cncc(Cl)c3)nc2)C(OC(C)=O)C1OC(C)=O (stereo not drawn) yielded a melting point of 203 to 205 °C. O=C(NCCCCCCNC(=O)c1ccc(O)cc1)c1ccc(O)cc1 gave a melting point of 220 to 222 °C. In the case of N#CC(NC(=O)c1ccccc1)n1cccn1 (stereo not drawn), the melting point is reported as 169 to 174 °C. Work on O=C(CO)Nc1cc(-c2ccncc2)c[nH]c1=O yielded a melting point of 271 to 274 °C. With COC(=O)CCC1=C(C)C2=NC1(CCC(=O)OC)C(C)C1(CCC#N)NC(C)(C=C3C=CC(=N3)C=c3ccc([nH]3)=C2)C(CCC#N)=C1C (stereo not drawn) the melting point was 201 to 205 °C. Compound CN1CCN(C(=O)Cn2c(=O)sc3ncc(Cl)cc32)CC1 has a melting point of 198 to 200 °C. With O=[N+]([O-])c1ccccc1SN(CCO)CCO the melting point was 82 to 86 °C. For CC(=O)C=Cn1sc(Cl)cc1=O, the melting point was 137 to 139 °C. In the case of O=C(Nc1ccc(-n2nc(C(F)(F)F)cc2C(F)(F)F)cc1)c1cccc(Cl)c1, the melting point is reported as 142 to 144 °C. For C[C@@H]1CN(C(=O)[C@@](C)(O)C(F)(F)F)[C@@H](C)CN1C(=O)c1ccc(F)cc1, the melting point was 177 to 178 °C. In the case of COc1ccc(C(=O)C=Cc2ccc(C(C)(C)C)cc2)cc1, the melting point is reported as 114 to 116 °C. CCc1cccc(C)c1N(CN1CCOC1=O)C(=O)CCl showed a melting point of 101 to 102 °C. With CNC(=S)C1(c2cccnc2)CCCCC1=CCO (stereo not drawn) the melting point was 172 to 173 °C. For Cc1nc(NC(=N)N)sc1C(=O)Nc1cccc(OCC(=O)OC(C)(C)C)c1, the melting point was 204 °C. N=C(Nc1ccc2c(c1)CNCCO2)c1ccsc1 gave a melting point of 150 to 152 °C. Compound CC1(C)OC(=O)N(Cc2ccccc2[N+](=O)[O-])C1O (stereo not drawn) has a melting point of 119 to 120 °C. Compound CC(C)(C)c1ccc([C@@H]2C[C@H]3C=C(c4c[nH]c(-c5ccc(F)c(F)c5)c4-c4ccncc4)CCN3C2)cc1 has a melting point of 218 to 220 °C. For CN(C(=O)Cc1ccccc1)c1ccc(OC23CC4CC(CC(C4)C2)C3)cc1, the melting point was 89 to 91 °C. Cc1ccc(Cl)cc1C(=O)CO showed a melting point of 55 to 57 °C. In the case of CN(C)c1ccc(-c2n[nH]c(=O)c3cc(N(C)C)ccc23)cc1, the melting point is reported as 230 to 233 °C. Compound CCOC(=O)c1nc2n(n1)-c1ccc([N+](=O)[O-])cc1C(c1ccccc1F)=NC2 has a melting point of 165 to 167 °C. With COc1ccc2c(C)c(CCN3CCN(c4ccccc4OC)CC3)c(=O)oc2c1 the melting point was 129 to 130 °C. Work on CSC(=CC(=O)c1ccccc1)CC(=O)c1ccccc1 yielded a melting point of 106 to 108 °C. C#CCOc1cc(-c2ncnc(C)c2C)c(F)cc1Cl showed a melting point of 131 to 133 °C. Work on CCOC(=O)CNC(=O)NCc1cccc2c1C(=O)N(C1CCC(=O)NC1=O)C2=O (stereo not drawn) yielded a melting point of 187 to 189 °C. For CCCCc1ncc(/C=C(\Cc2ccc(OC)s2)C(=O)O)n1Cc1ccccc1Cl, the melting point was 184 to 186 °C. With CN(C)c1ccc(Cn2cnc3c(-c4ccco4)ncnc32)cc1 the melting point was 158 to 160 °C. Cc1nn(C)c(S(N)(=O)=O)c1[N+](=O)[O-] gave a melting point of 138 to 140 °C. In the case of CCCCCCCCCCCCCCS(=O)(=O)N[C@H]1CCCNC(=O)C1, the melting point is reported as 100 to 101 °C. Compound CC(=O)c1c(C)[nH]c(-c2cccc(C)c2)c1N has a melting point of 195 to 197 °C. For CN1CCC(c2c(O)cc(O)c3c(=O)cc(-c4ccc(C(F)(F)F)cc4)oc23)C1CO (stereo not drawn), the melting point was 238 °C. O=C(O)CCc1conc1-c1ccc(F)c(Cl)c1 gave a melting point of 140 to 141 °C. Nc1nc(NS(=O)(=O)c2ccccc2[N+](=O)[O-])n[nH]1 showed a melting point of 255 to 256 °C. For CCCc1nn(-c2ccc(C(F)(F)F)cn2)cc1CCCCOc1cc(CC(=O)O)ccc1OC, the melting point was 147 to 148 °C. In the case of CC(C)(C)CC(NC(=O)c1ccc(Br)cc1)NC(=NS(=O)(=O)C(F)(F)F)Nc1cccnc1 (stereo not drawn), the melting point is reported as 185 to 186 °C. Cc1c(C)n(CCF)c2c(OCc3ccccc3)nncc12 gave a melting point of 106 to 107 °C. O=C(NC(Cc1c[nH]c2ccccc12)C(=O)OCc1ccc(Cl)cc1)c1ccccc1 (stereo not drawn) showed a melting point of 119 °C. Work on COc1ccc(-c2cc3ccccc3[nH]2)cc1N yielded a melting point of 208 to 209 °C. In the case of CNC(=O)c1ccc(NCC(=O)O)cc1, the melting point is reported as 234 °C. O=C(O)c1ccc2cc(-c3cc4c(c(C56CC7CC(CC(C7)C5)C6)c3)OCO4)ccc2c1 gave a melting point of 300 to 305 °C. CCOC(=O)c1c(-c2cccc(Cl)c2)csc1N1C(=O)c2ccccc2C1=O showed a melting point of 169 °C. Work on COC(=O)c1cc(C(=O)N2COCC2(C)C)c2cc(Cc3ccc(F)cc3)cnc2c1O yielded a melting point of 149 to 150 °C. For Cn1nnnc1CC(O)(Cn1cncn1)c1ccc(Cl)cc1Cl (stereo not drawn), the melting point was 182 to 184 °C. In the case of COC(=O)C(=O)Nc1ccc(C(CC2CCCC2)C(=O)Nc2nccs2)cc1 (stereo not drawn), the melting point is reported as 95 to 98 °C. CCCCNc1cc(C(=O)O)cc(S(N)(=O)=O)c1Sc1ccc(N)cc1 showed a melting point of 232 to 234 °C. For CS(=O)(=O)c1ccc(C(CC2CCCC2)C(=O)Nc2ncc[nH]2)cc1[N+](=O)[O-] (stereo not drawn), the melting point was 243 to 244 °C. Work on CC(=O)Nc1ccn(C2OC(CO[Si](c3ccccc3)(c3ccccc3)C(C)(C)C)CC2F)c(=O)n1 (stereo not drawn) yielded a melting point of 81 to 86 °C. With Cc1cc(N(C)c2ccccc2)c2nn(C)cc2n1 the melting point was 252 to 256 °C. O=C(O)c1ccc2c(c1)nc(-c1ccc(Oc3cccc(Br)c3)cc1)n2C1CCCCC1 showed a melting point of 255 to 256 °C. COC(=O)C1(C)OCC(c2ccccc2)(c2ccccc2)CO1 showed a melting point of 116 °C. With CC(Br)CN(CC(C)Br)c1c(C(=O)NCCOP(=O)(O)O)cc([N+](=O)[O-])cc1[N+](=O)[O-] (stereo not drawn) the melting point was 157 to 161 °C. COc1cc(-n2nc3ccc(Cl)cn3c2=O)c(F)cc1Cl gave a melting point of 140 to 142 °C. In the case of CC(C)C1(C#N)c2ccccc2C=CN1C(=O)c1ccccc1 (stereo not drawn), the melting point is reported as 124 to 126 °C. With Nc1ncc(CCCCCc2cccc3ccccc23)c(N)n1 the melting point was 128 to 133 °C. For CC(C)(NC(=O)OCc1ccccc1)C(=O)Nc1ccc([N+](=O)[O-])cc1C(=O)c1ccccc1F, the melting point was 153 to 155 °C. For COc1cc(OCCN2CCOCC2)c(C=O)cc1-c1cccs1, the melting point was 130 to 131 °C. Work on CCNn1cc(C(=O)O)c(=O)c2cc(F)c(Cl)cc21 yielded a melting point of 258 °C. For CC(C)c1nc(COCc2ccccc2)n(Cc2ccccc2)c1Sc1cccc(Cl)c1, the melting point was 120 to 122 °C. Work on CCOC(=O)c1ncc2[nH]c3ccc(S(=O)(=O)N(C)C)cc3c2c1COC yielded a melting point of 191 to 193 °C.
